Broadly, the MBC is the smallest concentration meeting the test's criterion for killing. The low end stands for more potent killing, the high end for less potent killing. By MIC is commonly meant the smallest concentration in the dilution series that meets the test's criterion for growth inhibition. A high value points to a less susceptible organism.

Converted amounts (≈) assume the structure as drawn.

What all share (format): functional
Assay [1] concerns Klebsiella pneumoniae. Briefly: Antibacterial activity against Klebsiella pneumoniae ATCC 13883 by broth macrodilution method.
Assay [2] deals with Staphylococcus aureus. As to the kind of experiment: Antibacterial activity against ciprofloxacin-resistant methicillin-resistant Staphylococcus aureus by broth macrodilution method.
Assay [3] concerns Staphylococcus aureus. Briefly: Antibacterial activity against ciprofloxacin-susceptible methicillin-resistant Staphylococcus aureus by broth macrodilution method.
Assay [4] concerns Klebsiella pneumoniae. Briefly: Antibacterial activity against Klebsiella pneumoniae ATCC 13883 by broth macrodilution method at 48 hrs. To be noted: ATCC 13883, 48 h.
Assay [5] deals with Staphylococcus aureus. Briefly: Antibacterial activity against ciprofloxacin-susceptible methicillin-resistant Staphylococcus aureus at 48 hrs by broth macrodilution method.
Assay [6] deals with Staphylococcus aureus. Briefly: Antibacterial activity against ciprofloxacin-resistant methicillin-resistant Staphylococcus aureus at 48 hrs by broth macrodilution method.

For the compound `C[C@H]1NCc2cc(-c3ccc4c(=O)c(C(=O)O)cn(C5CC5)c4c3OC(F)F)ccc21` [GARENOXACIN], the MBC against Klebsiella pneumoniae [1], against Staphylococcus aureus [2] and against Staphylococcus aureus [3] was 0.32 µg/mL (≈ 0.75 µM) each time. Also, the minimum inhibitory concentration (MIC) turned out to be 0.16 µg/mL (≈ 0.375 µM) in the assay on Klebsiella pneumoniae [1]; 0.16 µg/mL (≈ 0.375 µM) against Staphylococcus aureus [2]; 0.04 µg/mL (≈ 0.0938 µM) against Staphylococcus aureus [3]; 0.64 µg/mL (≈ 1.5 µM) in the assay on Klebsiella pneumoniae [4]; 0.08 µg/mL (≈ 0.188 µM) against Staphylococcus aureus [5]; 2.56 µg/mL (≈ 6 µM) in the assay on Staphylococcus aureus [6].

The record behind these values is ChEMBL document CHEMBL1142197, “The relationship between quinolone exposures and resistance amplification is characterized by an inverted U: a new paradigm for optimizing pharmacodynamics to counterselect resistance” (2007).
